Data as given in US9145381B2, “Derivative of [(3-hydroxy-4-pyron-2-yl)-methyl]-amine and use thereof as anti-neoplastic drugs” (Universita' Degli Studi Di Urbino, priority 2008, dated 2015).

Legend:
Type in all cases: cell-based
[1] = tested on: HeLa cells (uterine cervix cancer); assay: Antiproliferative activity, Trypan blue viability; conditions: 72 hours, treatments repeated every 24 hours, maximum over the lines
Method: (§1) FIGS. 3 and 4 show a diagram with the inhibiting concentrations (IC50) of L1 (FIG. 3) and L9 (FIG. 4) in different tumour cell lines. Cells in an exponential growth phase were treated for 72 hours with L1 and L9 and then harvested and stained with Trypan blue in order to determine viability. The values of IC50 have been computed for each compound as the concentration that can determine a 50% reduction in viable cells with respect to a non-treated control.
(§2) In order to evaluate the ability of these compounds to inhibit the proliferation of tumour cells in vitro, eight cell lines were selected, four deriving from haematopoietic tumours and four deriving from solid tumours. The tested hematopoietic lines comprise three myeloid tumour cell lines (U937—acute monocytic leukaemia, NB4—acute promyelocytic leukaemia, HL-60—acute myeloid leukaemia) and a lymphoid tumour cell line (JURKAT—T cell leukaemia), while cell lines deriving from multiform glioblastoma (U-373MG), from uterine cervix cancer (HeLa), from malignant pleural mesothelioma (H-28) and from rhabdomyosarcoma (RH-4) have been used as lines representative of solid tumours. Each cell line has been grown in the appropriate growth medium at 37° C. (RPMI 1640 for the hematopoietic lines and DMEM for the adhering cells deriving from solid tumours—Cambrex, Walkersville, Md., USA) added with 10% FBS, 1% glutamine, 100 IU/ml penicillin, 100 μg/ml streptomycin in a highly humidified atmosphere at 5% CO2. The hematopoietic populations were diluted with preheated growth medium at 37° C. at a concentration of 1×10^5 cells/ml and aliquots of 2 ml were aliquoted in each single well of 6-well plates. The adhering cells were trypsinized, diluted with preheated growth medium at 37° C. and 0.5×10^5 cells were aliquoted in each single well of 6-well plates. The cells in an exponential growth phase were treated with different concentrations of L1 or L9. Both compounds were diluted in distilled water and the treatments were repeated every 24 hours. 72 hours after starting the treatments, cell viability was evaluated by means of Trypan blue staining and the inhibiting concentration (IC50) was computed for each cell line as the concentration allowing to reduce by 50% the number of viable cells, with respect to a non-treated control.

[2] = tested on: RH-4 cells (rhabdomyosarcoma); assay: Antiproliferative activity, Trypan blue viability; conditions: 72 hours, treatments repeated every 24 hours, minimum over the lines
Method: as §1, §2

[3] = tested on: cell lines deriving from solid tumours (U-373MG, HeLa, H-28, RH-4); assay: Antiproliferative activity, Trypan blue viability; conditions: cells deriving from solid tumours, 72 hours
Method: as §1, §2

[4] = tested on: hematopoietic cells (U937, NB4, HL-60, JURKAT); assay: Antiproliferative activity, Trypan blue viability; conditions: 72 hours
Method: as §1, §2

tumour cell lines = assay: Cell cycle and apoptosis, propidium iodide cytofluorimetric analysis; conditions: 72 hour treatment; for interruption of the cell cycle: tested tumour cell lines in general, different concentrations
Method: (§3) FIG. 5: Apoptosis induced by L1 after treatment for 72 hours at a concentration of 50 μM. FIGS. 6-13: Effects of L1 on the percentages of the different phases of the cell cycle after a 72 hour treatment at different concentrations. FIG. 14: Apoptosis induced by L9 after a 72 hour treatment at a concentration of 5 μM. FIGS. 15-22: Effects of L9 on the percentages of the different phases of the cell cycle after a 72 hour treatment at different concentrations.
(§4) The effects of L1 and L9 on the progression of the cell cycle and on its hypothetical ability to induce the apoptotic process were evaluated by cytofluorimetric analysis by means of propidium iodide staining of all of the previously tested cell lines. Cell treated with different concentrations of the two compounds, as previously disclosed, have been harvested and washed with cold phosphate buffer (1×PBS). The cells were resuspended in cold 70% ethanol and fixed at +4° C. for 24 hours. All of the samples were then centrifuged at 1300 rpm at +4° C. for 3 minutes and then resuspended in a solution containing propidium iodide (1×PBS; 0.1% Triton X-100, 0.1% sodium citrate, 250 μg/ml RNasi A, 50 μg/ml propidium iodide) and, after 24 hours of incubation at +4° C., a minimum of 1×10^4 events were acquired at the BD FACScan cytofluorimeter (BD Biosciences, San Jose, Calif., USA). The acquisitions were analysed by a FlowJo 5.7.2 software (Tree Star, Inc., Ashland, Oreg., USA) in order to determine the percentage of cells in different phases of the cell cycle and displaying hypoploid conditions (Apoptotic cells). The induction of programmed cell death was computed as the difference between the percentage of hypodiploid cells in treated and non-treated samples.

HL-60 cells = assay: Cell cycle, propidium iodide cytofluorimetric analysis; conditions: HL-60 (printed H1-60 / JL-60), 72 hour treatment
Method: as §3, §4

HeLa cells = assay: as above; conditions: 72 hour treatment
Method: as §3, §4

JURKAT cells = assay: as above; conditions: 72 hour treatment
Method: as §3, §4

RH-4 cells = assay: as above; conditions: RH-4, 72 hour treatment
Method: as §3, §4

U937 cells = assay: Fragmentation of genomic DNA, agarose gel electrophoresis; conditions: U937, 72 hours; L1 25, 50, 100 μM; L9 2.5, 5, 10 μM
Method: The cells were treated for 72 hours with L1 and L9 at the concentrations shown in the Figure, the genomic DNA was then extracted, separated on a 2% agarose gel and stained with ethidium bromide.
The induction of apoptosis by compounds L1 and L9 has further been confirmed with the analysis of the fragmentation of the genomic DNA carried out by electrophoresis on an agarose gel. U937 cells treated with L1 (non-treated as a control) at concentrations of 25, 50, 100 μM and L9 at concentrations of 2.5, 5, 10 μM for 72 hours were harvested (about 2×10^6 cells), washed with cold 1×PBS and incubated in 2 ml of 1×TBS, 0.5% Tween20, 1 mM EDTA for 30 minutes at +4° C. After being centrifuged at 1200 rpm, for 5 minutes at +4° C., the cells were incubated in 0.5 ml of a solution at 0.1% SDS for 30 minutes at room temperature. The genomic DNA was then extracted by using a QIAquick Gel Extraction Kit (Qiagen, Hilden, Germany), electrophoretically separated by means of a 2% agarose gel and stained with ethidium bromide.

[5] = tested on: all tested tumour cell lines (U937, NB4, HL-60, JURKAT, U-373MG, HeLa, H-28, RH-4); assay: Antiproliferative activity, Trypan blue viability; conditions: range over the tested cell lines, 72 hours, read-out: IC50 values in the different tested cell lines
Method: In order to evaluate the ability of these compounds to inhibit the proliferation of tumour cells in vitro, eight cell lines were selected, four deriving from haematopoietic tumours and four deriving from solid tumours. […] Each cell line has been grown in the appropriate growth medium at 37° C. […] The hematopoietic populations were diluted with preheated growth medium at 37° C. at a concentration of 1×10^5 cells/ml and aliquots of 2 ml were aliquoted in each single well of 6-well plates. The adhering cells were trypsinized, diluted with preheated growth medium at 37° C. and 0.5×10^5 cells were aliquoted in each single well of 6-well plates. […] Both compounds were diluted in distilled water and the treatments were repeated every 24 hours.

H-28 cells = assay: Cell cycle, propidium iodide cytofluorimetric analysis; conditions: H-28, 72 hour treatment
Method: as §3, §4

CN(CCN(C)Cc1occc(=O)c1O)Cc1occc(=O)c1O [Compound L1, N,N′-bis[(3-hydroxy-4-pyron-2-yl)methyl]-N,N′-dimethylethylendiamine]
IC50 [1]: 30.5 µM
IC50 [2]: 4.49 µM
IC50 [3]: 22 µM
IC50 [4]: 10.4 µM
interruption of the cell cycle (tumour cell lines): interrupt the cell cycle of tumour cells in phase S and G2 in a concentration-dependent manner
induction of apoptosis (hypodiploid cells) (tumour cell lines; tumour cells, propidium iodide): induce apoptosis
block of the cell cycle (HL-60 cells): mainly blocked in phase S
block of the cell cycle (HeLa cells): mainly blocked in phase S
block of the cell cycle (JURKAT cells): severe block in G2
block of the cell cycle (RH-4 cells): severe block in G2
fragmentation of genomic DNA (U937 cells): concentration-dependent internucleosomic fragmentation

CN1CCN(Cc2occc(=O)c2O)CCN(C)CCN(Cc2occc(=O)c2O)CC1 [Compound L9, 4(N),10(N)-bis[(3-hydroxy-4-pyron-2-yl)methyl]-1,7-dimethyl-1,4,7,10-tetraazacyclododecane]
IC50 [5]: 1.45 to 2.31 µM
interruption of the cell cycle (tumour cell lines): mainly blocked in phase G2
block of the cell cycle (H-28 cells): moderate block in phase G1
block of the cell cycle (HL-60 cells): moderate block in phase G1
block of the cell cycle (HeLa cells): stop especially in phase S
block of the cell cycle (JURKAT cells): stop especially in phase S
fragmentation of genomic DNA (U937 cells): concentration-dependent internucleosomic fragmentation
